Assay results taken from paper PMC12977544, “Phenotypic high-throughput screening identifies modulators of gut microbial choline metabolism” (mBio, 2026).
≈ marks a conversion by molar mass, not a printed value.

Key:
Type in all cases: cell-based
[1] = test system: Anaerococcus hydrogenalis DSM 7454; test: TMA inhibition in bacterial whole cells (LC–MS/MS of d9-TMA from d9-choline); conditions: 1 mM d9-choline in PBS, 75 min, 37°C, anaerobic; for EC50: Anaerococcus hydrogenalis, DSM7454, 1.25 h
Experimental: (§1) For TMA inhibition assays, E. coli and P. mirabilis were grown in NCE medium supplemented with 20 mM choline chloride, A. hydrogenalis was grown in MEGA medium supplemented with 3 mM choline chloride, and C. sporogenes was grown in BHI medium supplemented with 20 mM of choline chloride to induce expression of the cut gene cluster. For MIC assays, all bacteria strains were grown in MEGA medium.
(§2) Compounds were stored as 10 mM DMSO stocks at –20°C and diluted in DMSO to prepare varying concentrations of inhibitors for testing. Bacteria were grown anaerobically overnight in media supplemented with choline as described above. Cells were pelleted and resuspended in PBS, and d9-choline chloride was added to a final concentration of 1 mM. The final OD600 of the PBS cell resuspensions is as follows: 0.4 (E. coli), 0.15–0.2 (P. mirabilis), 0.2 (C. sporogenes), and 0.4 (A. hydrogenalis). The resuspended cells were added to 96-well plates containing inhibitors (final concentration of 1% DMSO, with final inhibitor concentrations ranging between 0 and 325 µM). The plates were sealed and incubated for 75 min (or 90 min for P. mirabilis) at 37°C. Following incubation, the plates were removed from the anaerobic chamber and analyzed immediately or kept at –20°C until LC–MS/MS analysis. Each inhibitor concentration was tested in triplicate. EC50 values were calculated with GraphPad Prism by fitting the log(inhibitor) vs response—Variable slope (four-parameter) model for non-linear regression.
(§3) Samples were kept frozen until analysis and kept cold on ice during handling due to the volatility of TMA. Bacterial cell resuspensions in PBS were diluted 100-fold in LCMS-grade acetonitrile with 0.1% formic acid to lyse cells, precipitate proteins, and extract metabolites. Samples were centrifuged at 4,000 rpm for 10 min at 4°C to pellet proteins. The supernatants were then further diluted 20-fold in LCMS-grade acetonitrile with 0.1% formic acid, and the resulting solution was analyzed by LC–MS/MS.
(§4) LC–MS/MS analysis was performed on an Agilent 1290/6470 Triple Quadrupole LC–MS instrument (Agilent Technologies) using electrospray ionization. The mass spectrometer was operated in multiple reaction monitoring (MRM) mode with positive ionization monitoring. The precursor–product ion pairs used in MRM mode were as follows: m/z 69.1m/z → 49.1 (d9-TMA) and m/z 113.2 m/z → 69.1 (d9-choline). The capillary voltage was set to 4.0 kV, and the fragmentor voltage was set to 30 V (d9-TMA) and 115 V (d9-choline). The collision energy for the precursor–product ion pairs was set to 29 V (d9-TMA) and 21 V (d9-choline). MS^1 resolution was set to wide and MS^2 resolution to unit. The drying gas temperature was maintained at 250°C, with a flow rate of 11 L/min and a nebulizer pressure of 45 psi. The time filter width used was 0.07 min. The injection volume of all samples was 1 μL. Samples were injected onto InfinityLab Poroshell 120 (Agilent) HILIC columns (2.7 μm, 100 mm × 2.1 mm, 100 Å) preceded by InfinityLab Poroshell 120 HILIC guard columns (2.1 mm, 1.9µm UHPLC guard). The LC conditions on the binary pump were as follows: a gradient of 5–35% A increasing over 1.95 min (1.2 mL/min), a gradient of 35–5% A decreasing over 0.05 min (1.6 mL/min), and held at 5% A for 0.5 min (2 mL/min). […] Solvent A was 10 mM ammonium formate with 0.1% formic acid, and solvent B was acetonitrile with 0.1% formic acid. Data analysis was performed with Mass Hunter Workstation Data Acquisition and Qualitative Analysis software (Agilent Technologies).

[2] = test system: Proteus mirabilis ATCC 29906; test: as above; conditions: Proteus mirabilis, ATCC29906, 1.5 h; 1 mM d9-choline in PBS, 90 min, 37°C, anaerobic; read-out: EC50 in whole cells, P. mirabilis (TMA inhibition)
Experimental: as §1, §2, §3, §4

[3] = test system: Clostridium sporogenes ATCC 15579; test: as above; conditions: Clostridium sporogenes, ATCC15579, 1.25 h; 1 mM d9-choline in PBS, 75 min, 37°C, anaerobic
Experimental: as §1, §2, §3, §4

[4] = test system: Bacteroides thetaiotaomicron VPI-5482; test: MIC in MEGA medium; conditions: Bacteroides thetaiotaomicron, VPI5482; anaerobic, 37°C, 24 h, up to 200 µM; read-out: MIC in MEGA medium, B. thetaiotaomicron
Experimental: as §1

[5] = test system: Anaerococcus hydrogenalis DSM 7454; test: MIC in MEGA medium; conditions: Anaerococcus hydrogenalis, DSM7454; anaerobic, 37°C, 24 h, up to 200 µM
Experimental: as §1

[6] = test system: Eubacterium rectale ATCC 33656; test: MIC in MEGA medium; conditions: Agathobacter rectalis, ATCC33656; anaerobic, 37°C, 24 h, up to 200 µM; read-out: MIC in MEGA medium, E. rectale
Experimental: as §1

[7] = test system: Bacteroides ovatus ATCC 8483; test: MIC in MEGA medium; conditions: Bacteroides ovatus, ATCC8483; anaerobic, 37°C, 24 h, up to 200 µM; read-out: MIC in MEGA medium, B. ovatus
Experimental: as §1

[8] = test system: Proteus mirabilis ATCC 29906; test: MIC in MEGA medium; conditions: Proteus mirabilis, ATCC29906; anaerobic, 37°C, 24 h, up to 200 µM; read-out: MIC in MEGA medium, P. mirabilis
Experimental: as §1

[9] = test system: Bacteroides caccae ATCC 43185; test: MIC in MEGA medium; conditions: Bacteroides caccae, ATCC43185; anaerobic, 37°C, 24 h, up to 200 µM; read-out: MIC in MEGA medium, B. caccae
Experimental: as §1

[10] = test system: Collinsella aerofaciens ATCC 25986; test: MIC in MEGA medium; conditions: Collinsella aerofaciens, ATCC25986; anaerobic, 37°C, 24 h, up to 200 µM
Experimental: as §1

[11] = test system: Clostridium sporogenes ATCC 15579; test: MIC in MEGA medium; conditions: Clostridium sporogenes, ATCC15579; anaerobic, 37°C, 24 h, up to 200 µM
Experimental: as §1

## Cc1ccc(-c2cc(C(=O)NCCCN3CCc4ccccc4C3)c(C)[nH]2)cc1C [Compound 5]
[1]
  EC50 in whole cells, A. hydrogenalis (TMA inhibition): No inhibition
[2]
  EC50: 33 µM
[3]
  EC50: 28 µM

## Cc1ccc(-c2cc(C(=O)NCCCCCN3CCCCCC3)c(C)[nH]2)cc1C [Compound 45]
[1]
  EC50: 18 µM
[2]
  EC50: 7 µM
[3]
  EC50: 14 µM
[4]
  MIC: > 200 µM
[5]
  MIC: > 200 µM
[6]
  MIC: > 200 µM
[7]
  MIC: > 200 µM
[8]
  MIC: > 200 µM
[9]
  MIC: > 200 µM
[10]
  MIC: > 200 µM
[11]
  MIC: > 200 µM

## Cc1ccc(-c2cc(C(=O)NCCCN3CCC(C)CC3)c(C)[nH]2)cc1C [Compound 6]
[1]
  EC50: 31 µM
[2]
  EC50: 48 µM
[3]
  EC50: 132 µM
[4]
  MIC: > 200 µM
[5]
  MIC: 200 µM (≈ 73.5 µg/mL)
[6]
  MIC: 200 µM (≈ 73.5 µg/mL)
[7]
  MIC: > 200 µM
[8]
  MIC: > 200 µM
[9]
  MIC: > 200 µM
[10]
  MIC: > 200 µM
[11]
  MIC: > 200 µM
